From patent US7939554B2, “Protein phosphatase inhibitors” (The Cleveland Clinic Foundation, priority 2006, dated 2011)

Tests used:
recombinant SHP-1 = target: T1, recombinant SHP-1 (Homo sapiens, UniProt P29350); test: rapid in vitro SHP-1 PTPase assay (DIFMUP fluorescence substrate); format: biochemical; settings: for inhibition of phosphatase activity of recombinant SHP-1: L5 and analogs, 1 μg/well, FIG. 12A
T1 construct: Recombinant protein of SHP-1 PTPase catalytic domain was described
T1 sequence (P29350 244-515 limits assumed): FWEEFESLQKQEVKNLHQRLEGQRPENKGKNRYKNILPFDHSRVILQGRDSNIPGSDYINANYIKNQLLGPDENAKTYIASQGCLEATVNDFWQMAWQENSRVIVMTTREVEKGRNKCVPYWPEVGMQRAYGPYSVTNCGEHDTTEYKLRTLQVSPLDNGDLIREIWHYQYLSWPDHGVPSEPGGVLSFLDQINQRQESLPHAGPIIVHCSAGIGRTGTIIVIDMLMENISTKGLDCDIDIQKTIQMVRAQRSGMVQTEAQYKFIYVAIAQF
Procedure: Recombinant protein of SHP-1 PTPase catalytic domain was described and stored in Tris buffer (25 mM Tris, pH7.5, 1 mM EDTA, 2 μM 2-ME, 25% glycerol) at −80° C. Fluorescence substrate DIFMUP (6,8-difluoro-4 methylumbelliferyl phosphate) was purchased (Molecular Probes). SSG was reported previously (21-23) and stored at 4° C. in darkness prior to use. Human and mouse IFNγ ELISPOT Kit (R & D System), CD4^+ Cell Intracellular IFNγ Detection Kit (BD Bioscience) and CD8^+ Cell Intracellular IFNγ Detection Kit (BD Bioscience) were purchased from commercial sources. Human Jurkat T cell line (26) and murine B16 melanoma cell line (ATCC) were maintained in […] culture medium supplemented with 10% fetal calf serum (FCS). Antibodies against pLck-pY394 (Cell Signaling), pLck-pY505 (Cell Signaling), pZap70 (pY319, BD Biosciences), pSlp76 (pY128, BD Biosciences) and pLat (pY226, BD Biosciences) were purchased from commercial sources.
A rapid SHP-1 PTPase assay was developed for screening the compounds in a commercial library of 34,000 drug-like small chemicals (Chembridge, Mass.). Briefly, compounds of the library (1 μg/well in […]) were placed in 96-well plates (Falcon, 353072) and mixed with recombinant SHP-1 protein (0.1 μg/well) in […] of HEPES buffer (50 mM HEPS, pH 7.5, 150 mM NaCl, 1 mM EDTA, 0.2 mM DTT and 0.1 mg/ml BSA). The plates were incubated at room temperature for 10 minutes prior to the addition of fluorescence substrate DIFMUP (40 μM stock in HEPES buffer, 10 μl/well) to initiate PTPase reaction. Upon completion of PTPase reaction at room temperature for 1 hr in darkness, fluorescence signal of individual wells were recorded using a Vector^2 Multilabel Counter (Vector, CA). They were compared to that of control SHP-1 PTPase reaction (˜10,000 units of fluorescence signal) in the absence of any compound (100%) for calculating relative SHP-1 inhibition induced by the compounds after subtracting the background signal (˜500 units of fluorescence signal) of the substrate.
To evaluate their SHP-1 inhibitory activity, the analogs (1 μg/well in 0.2 μl DMSO) were aliquot individually to 96-well plates (Falcon, 353072) and mixed with recombinant SHP-1 protein (0.1 μg/well) in 90 μl of HEPES buffer (50 mM HEPS, pH 7.5, 150 mM NaCl, 1 mM EDTA, 0.2 mM DTT and 0.1 mg/ml BSA). The plates were incubated at room temperature for 10 minutes prior to the addition of fluorescence substrate DIFMUP (40 μM stock in HEPES buffer, 10 μl/well) to initiate PTPase reaction. Upon completion of PTPase reaction at room temperature for 1 hr in darkness, fluorescence signal of individual wells were recorded using a Vector^2 Multilabel Counter (Vector, CA). […]

B16 melanoma cells = test: B16 melanoma cell growth in culture (MTT assay); format: cell-based, mouse; settings: 6 days; FIG. 13C
Procedure: Data represent mean±SD of triplicate samples. […] Tumor volumes were recorded as indicated. C, Athymic nude mice bearing 4-day-established B16 tumors were subjected to differential treatments as in B. Tumor volumes were recorded as indicated.
L5, L6 and L6 analogs (Chembridge), mouse IFNγ ELISPOT Kit (R & D System) and antibody against pLck-pY394 or pERK1/2 (Cell Signaling) were purchased from commercial sources. Human Jurkat T cell line and murine B16 melanoma cell line (ATCC) and other cancer cell lines were maintained in […] culture medium supplemented with 10% fetal calf serum (FCS). The effects of chemical compounds on cancer cell growth in culture were quantified by MTT assays following our established procedures.

mouse splenocytes = test: induction of IFNγ+ cells in mouse splenocytes in vitro (ELISPOT); format: cell-based; settings: 1 μg/ml; FIG. 11
Procedure: The splenocytes were cultured in RPMI 1640 medium supplemented with 10% FCS in the absence or presence of designated agents for 16 hrs in flat-bottom 96-well plates coated with a monoclonal antibody specific for mouse IFNγ (mouse IFNγ ELISPOT Kit, R & D System). The plates were then processed for in situ detection of IFNγ+ cells by ELISA following the manufacturer's procedure. Scanning and counting of IFNγ+ cells in the plates were accomplished using an automatic ELISPOT reader with Immunospot2 software (Cellular Technology Ltd). Mouse splenocytes were also untreated or treated with agents for 16 hrs in culture dishes and then stained with appropriate isotype control antibodies or FICT-labeled anti-CD3 monoclonal antibody (BD) plus PE-labeled monoclonal antibody (BD) for intracellular IFNγ following established procedures. The stained samples were washed 3 times, re-suspended in 200 μl of 1% para-formaldehyde solution and analyzed (20,000 cells/sample) using a BD FACS Caliburs cytometer and WinList software.
The splenocytes were cultured in RPMI 1640 medium supplemented with 10% FCS in the absence or presence of designated agents for 16 hrs in flat-bottom 96-well plates coated with a monoclonal antibody specific for mouse IFNγ (mouse IFNγ ELISPOT Kit, R & D System). The plates were then processed for in situ detection of IFNγ+ cells by ELISA following the manufacturer's procedure. Scanning and counting of IFNγ+ cells in the plates were accomplished using an automatic ELISPOT reader with Immunospot2 software (Cellular Technology Ltd).

[1] = test system: CD3+ and CD3- IFNγ+ splenocytes; test: spleno-IFNγ+ cells in B16 tumor mice (CD3/intracellular IFNγ FACS); format: in vivo, mouse; settings: 1 mg/kg oral, day 22
Procedure: Splenocytes from mice untreated or treated with L5a2 were stained with appropriate isotype control antibodies or FICT-labeled anti-CD3 monoclonal antibody (BD) plus PE-labeled monoclonal antibody (BD) for intracellular IFNγ following established procedures. The stained samples were washed 3 times, re-suspended in 200 μl of 1% para-formaldehyde solution and analyzed (20,000 cells/sample) using a BD FACS Caliburs cytometer and FlowJoe software.
To gain further insights into the mechanism of action in L5a2 in vivo, spleens were harvested from the B16 tumor mice in the control and the L5a2-treated groups (FIG. 13A) on day 22 to assess whether L5a2 induced IFNγ+ cells in the tumor-bearing mice. It was also determined whether the induced-IFNγ+ cells were of CD3+ T lymphocytes, which were activated TH1 critical for anti-tumor immunity. Splenocytes were prepared and co-stained for intracellular IFNγ and the T cell surface marker CD3 for quantification of IFNγ+ T cells by flow cytometry.

intracellular SHP-1 = target: T2, intracellular SHP-1 (Homo sapiens, UniProt P29350); test: tyrosine phosphorylation of SHP-1 substrates in Jurkat cells (SDS-PAGE/Western blotting, densitometry); format: cell-based
T2 construct: endogenous in cells; host or cells: Jurkat
T2 sequence (P29350 whole entry): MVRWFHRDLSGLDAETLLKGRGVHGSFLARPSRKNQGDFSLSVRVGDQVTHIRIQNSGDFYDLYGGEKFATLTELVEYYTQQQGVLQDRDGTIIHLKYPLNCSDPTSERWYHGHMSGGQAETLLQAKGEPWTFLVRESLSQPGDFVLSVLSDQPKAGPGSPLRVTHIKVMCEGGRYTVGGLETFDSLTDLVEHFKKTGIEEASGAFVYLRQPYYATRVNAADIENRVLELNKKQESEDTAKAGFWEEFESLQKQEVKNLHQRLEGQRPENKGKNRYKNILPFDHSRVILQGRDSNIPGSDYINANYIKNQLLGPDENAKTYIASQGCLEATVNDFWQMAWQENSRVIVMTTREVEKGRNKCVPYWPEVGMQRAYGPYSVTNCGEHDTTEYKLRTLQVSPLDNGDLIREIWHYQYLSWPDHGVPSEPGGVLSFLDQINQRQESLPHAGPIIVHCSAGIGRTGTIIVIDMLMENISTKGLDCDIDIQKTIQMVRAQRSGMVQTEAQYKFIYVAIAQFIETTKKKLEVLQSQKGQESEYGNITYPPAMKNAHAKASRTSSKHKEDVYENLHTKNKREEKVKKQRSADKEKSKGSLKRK
Procedure: (§1) Jurkat cells in culture medium (3×10^6 cells/ml, 1 ml/tube) were treated with agents for designated times at room temperature. After brief centrifuging in a microfuge (4,000 rpm, 2 min), the cell pellet was lysed on ice for 30 min in 1001 of cold lysis buffer (1% NP40, 50 mM Tris, pH 7.4, 150 mM NaCl, 20 mM NaF, 0.2 mM Na3VO4 and 1 mM Na3MO4) containing a cocktail of proteinase inhibitors (Sigma, 1 tablet/10 ml). The lysates were cleared by centrifuging (14,000 rpm, 10 min) in a microfuge at 4° C. to remove insoluble parts, mixed with equal volume of 2×SDS-PAGE sample buffer, boiled for 5 min and analyzed (˜3×10^5 cells/well) by SDS-PAGE/Western blotting. Relative intensities of phosphotyrosine bands were quantified through densitometry analysis.
as §1, with “100 μl” for “1001”, “blotting as described previously (23, 24).” for “blotting.”
as §1, with “100 μl” for “1001”, “blotting as described previously (17, 18).” for “blotting.”

SHP-2 = target: T3, SHP-2 (Homo sapiens, UniProt Q06124); test: SHP-2 inhibition by SSG (applicant's earlier studies); settings: recombinant and intracellular SHP-2
T3 sequence (Q06124 1-593): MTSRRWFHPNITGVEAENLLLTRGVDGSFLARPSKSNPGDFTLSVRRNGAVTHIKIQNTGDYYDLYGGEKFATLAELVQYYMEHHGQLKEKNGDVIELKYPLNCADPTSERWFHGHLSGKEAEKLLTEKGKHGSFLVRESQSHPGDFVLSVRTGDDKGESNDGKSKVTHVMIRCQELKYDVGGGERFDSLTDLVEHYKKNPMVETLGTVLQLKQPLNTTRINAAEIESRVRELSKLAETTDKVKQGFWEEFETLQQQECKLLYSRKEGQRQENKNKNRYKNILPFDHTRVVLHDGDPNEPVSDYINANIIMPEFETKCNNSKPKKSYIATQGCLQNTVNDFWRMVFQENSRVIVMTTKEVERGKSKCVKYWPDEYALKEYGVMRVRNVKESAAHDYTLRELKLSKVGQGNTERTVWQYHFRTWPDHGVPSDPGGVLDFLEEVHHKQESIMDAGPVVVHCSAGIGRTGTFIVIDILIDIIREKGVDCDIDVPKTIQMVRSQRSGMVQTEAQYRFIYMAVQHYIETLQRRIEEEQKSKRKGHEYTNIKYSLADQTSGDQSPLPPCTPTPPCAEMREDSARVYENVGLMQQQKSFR

Procedure for B16 melanoma tumors: Tumor volume (n=5) was measured during the study period and calculated using the formula for a prolate spheroid. Student's t test was used for assessing the significance of tumor volume differences among differential treatment groups. Mouse viability (daily) and body weights (weekly) were also recorded during the study period. Major internal organs of the mice were inspected visually upon their termination at the end of the experiment.
To assess anti-tumor activity, C57BL/6J mice (˜8-week old, female, Taconic Farms, Germantown, N.Y.) were inoculated (s. c.) at the flanks with B16 melanoma cells (4×10^4 cells/site). […] Tumor volume (n=5) was measured during the study period and calculated using the formula for a prolate spheroid. Student's t test was used for assessing the significance of tumor volume differences among differential treatment groups. Mouse viability (daily) and body weights (weekly) were also recorded during the study period. Major internal organs of the mice were inspected visually upon their termination at the end of the experiment.

Row | Compound | inhibition of phosphatase activity of recombinant SHP-1 (recombinant SHP-1) | inhibition of B16 melanoma cells in culture (B16 melanoma cells) | B16 tumor growth inhibition versus control (B16 melanoma tumors; 1 mg/kg/daily, M-F/wk, oral, day 22) [%] | tolerance of treated tumor mice (behavior, gross anatomy) (B16 melanoma tumors; mouse, in vivo) | induction of IFNγ+ cells (mouse splenocytes) [fold] | increase of CD3+ IFNγ+ cells [1] [fold] | increase of CD3- IFNγ+ cells [1] [fold] | level at which SHP-1 is inhibited (recombinant SHP-1; recombinant and intracellular SHP-1) [µg/mL] | pLck-pY394 induction (intracellular SHP-1; 10 μg/ml, 10 min) [fold] | dose effective in inducing pLck-pY394 (lowest / only effective dose) (intracellular SHP-1; 10 min treatment) [μg/ml] | level active against intracellular SHP-1 (intracellular SHP-1; Jurkat T cells, molar equivalent) [µM] | pLck-pY394 induction (intracellular SHP-1; lower (1 μg/ml) or higher (100 μg/ml) doses) | level at which SHP-2 is inhibited (SHP-2) [µg/mL]
1 | O=C1C=CC(=O)C(c2cccc(Cl)c2)=C1 [L5a2] | completely or almost completely inhibited | failed to inhibit | ~75 | no apparent abnormality | ~20 | ~4.5 | 1.3 |  |  |  |  |  | 
2 | O=C1C=C(c2ccccc2)C(=O)c2ccccc21 [L5a3] | ~80% |  |  |  |  |  |  |  |  |  |  |  | 
3 | O.O.O.O.O.O.O.O.O.O=C([O-])[C@@H]1[O][Sb]2([O-])([O][Sb]34([OH])[O][C@H]([C@H](O)CO)[C@H]([O]3)[C@H](C(=O)[O-])[O]4)[O][C@H]([C@H](O)CO)[C@@H]1[O]2.[Na+].[Na+].[Na+] [SSG, Sodium Stibogluconate, reference compound] |  |  |  |  |  |  |  | 10 | ~2 | 10 | ~14 | failed | 10
